Values after ≈ are worked out from the molar mass of the structure shown. Like-named read-outs stand apart in the source and are kept apart here.
Legend:
oleamide hydrolase [1] = molecular target: T1, oleamide hydrolase (Rattus norvegicus, UniProt P97612); test: Oleamide hydrolase inhibition, ammonia production measured with ion-selective electrode; format: biochemical
T1 construct: The enzyme was used as a crude, heterogenous, membrane-containing preparation from rat liver; from tissue; host or cells: rat liver plasma membrane preparation (12-14 rat livers), crude
T1 sequence (P97612 1-579): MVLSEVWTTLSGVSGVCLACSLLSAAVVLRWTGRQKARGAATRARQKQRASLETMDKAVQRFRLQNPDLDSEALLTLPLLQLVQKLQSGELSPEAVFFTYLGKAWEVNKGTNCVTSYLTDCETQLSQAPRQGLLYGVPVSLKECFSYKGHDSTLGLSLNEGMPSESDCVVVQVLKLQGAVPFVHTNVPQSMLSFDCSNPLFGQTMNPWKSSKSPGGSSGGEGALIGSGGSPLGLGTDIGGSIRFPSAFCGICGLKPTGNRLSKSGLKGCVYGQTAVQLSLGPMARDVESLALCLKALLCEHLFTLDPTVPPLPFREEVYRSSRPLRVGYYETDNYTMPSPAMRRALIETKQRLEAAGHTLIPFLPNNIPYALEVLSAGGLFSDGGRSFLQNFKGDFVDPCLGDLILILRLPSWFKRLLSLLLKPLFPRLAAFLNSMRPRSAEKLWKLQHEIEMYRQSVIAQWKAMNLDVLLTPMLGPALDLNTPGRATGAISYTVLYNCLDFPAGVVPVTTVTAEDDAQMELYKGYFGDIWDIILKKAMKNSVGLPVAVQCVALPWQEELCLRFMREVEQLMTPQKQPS
Method: Error values presented with Ki s should be considered goodness-of-fit estimates derived from propagation of errors treatment of data. They are not necessarily an indication of reproducibility.
Twelve to fourteen rat livers were sectioned and placed in 300 mL of 1 mM NaHCO3. The solution of diced liver was strained and washed with additional 300 mL of 1 mM NaHCO3. Any conspicuous connective tissue was removed. The liver was transferred to a fresh 800 mL of 1 mM NaHCO3, stirred and then transferred in 400 mL aliquots to a blender. Blended liver aliquots were combined and filtered through 8 layers of cheesecloth. This was diluted to 1.0 L with 1 μM NaHCO3 and centrifuged at 6000 rpm for 20 minutes at 40° C. (Beckman JA-17 rotor). The supernatant was decanted, the pellets resuspended in 1 mM NaHCO3, combined and dounce homogenized. Centrifugation, decantation and resuspension/homogenization were repeated to give a final volume of approximately 90 mL. The homogenate was added to 2 volume equivalents of 67% sucrose, mixed thoroughly, and transferred to ultracentrifuge compatible tubes. The tubes were topped with 30% sucrose and spun at 27,000 for 2 hours (SW-28 rotor). The middle yellow band was removed from the sucrose gradient, combined, resuspended in 1 mM NaHCO3, and dounce homogenized. The sample was further centrifuged at 17,000 rpm for 45 minutes at 4° C. (JA-17 rotor). The supernatant was removed, the pellets resuspended in 100 mM Na2 CO3, dounce homogenized and left on ice for 30 minutes. The solution was centrifuged at 27,000 rpm for 1 hour (SW-28 rotor), the supernatant was decanted and the pellet resuspended in 15 mL of 50 mM Tris HCl, pH 7.4 with 1 mM EDTA, and homogenized with a dounce homogenizer. This material was divided into multiple aliquots and frozen at -78° C. until use. Each enzyme sample was frozen once only.

oleamide hydrolase [2] = molecular target: T1, oleamide hydrolase; test: pH-rate dependence of oleamide hydrolase cleavage of oleamide; format: biochemical; conditions: cleavage of compound 1
Method: FIG. 12 illustrates the equations used to determine the pH-Rate dependence. The rate was obtained from the linear portion of the curve which was fit using a standard least squares procedure. These rates were replotted against pH and fit with the shown equation by a weighted non-linear least-squares method.
Crude enzyme was added to a solution of 200 μM oleamide (approximately the solubility limit) 1 in 20 mL buffer at the appropriate pH, containing 5% DMSO. (Concentrations of up to 20% DMSO had only minimal effect on enzyme rates.) A 50 mM sodium citrate/Bis-tris buffer was used for data points in the pH 4-9 range. A 50 mM Bis-tris/CAPS was used for data points in the 8-11 range. At pH 12, the solution was assumed to be self-buffering. At periodic time intervals, 1 mL aliquots were removed and diluted with 9 mL pH 14 buffer. Ammonia concentrations were measured with an ion-selective ammonia electrode (Orion) connected to a 720 A meter (Orion), calibrated against known standards. The rate was obtained from the linear portion of the curve which was fit using a standard least-squares procedure. […]

oleamide hydrolase [3] = molecular target: T1, oleamide hydrolase; test: Determination of Km for oleamide (Lineweaver-Burke plot); format: biochemical
Method: The potency of the inhibitors was determined using an ion selective electrode to measure the production of ammonia as the result of the hydrolysis of 100 μM oleamide (~20 Km) by a membrane bound preparation of oleamide hydrolase. […] Inhibition constants were determined by the Dixon method (FIGS. 4-6).
The enzyme was used as a crude, heterogenous, membrane-containing preparation from rat liver. […] Within solubility limits, all inhibitors achieved 100% inhibition of activity at concentrations of greater than 100 Ki. No detectable activity was found in the absence of added oleamide.
The Km for oleamide was determined as the average Km obtained from four independent assays. Each independent Km was obtained from weighted linear fit of data in a Lineweaver-Burke plot. A fifth concurring Km was obtained as a result of the determination of oleic acid inhibition by non-linear methods. The rate data was fit with the standard Michaelis-Menten kinetic equation.

[4] = Solubility of oleamide in assay buffer; format: physicochemical; conditions: buffer with 5% dmso, organic solvent or mixture; buffer containing 5% DMSO; read-out: solubility limit
[5] = Ammonia production from oleamide in the absence of enzyme; format: physicochemical; conditions: 100 μM oleamide, pH 10.0
Method: The potency of the these compounds against oleamide hydrolysis was evaluated using an ion-selective ammonia electrode (ATI/Orion) to directly measure ammonia formation as the product of the reaction. All Ki s except for that of oleic acid were determined by the Dixon method. (X intercepts of weighted linear fits of [I] versus 1/Rate plots at a constant substrate concentration were converted to Ki 's using the formula Ki =-Xint /[1+[S]/Km ].) The oleic acid Ki was obtained from a non-linear weighted least-squares fit of rate versus substrate and inhibitor concentrations. The assays were done with constant stirring in 10 mL 50 mM CAPS buffer (Sigma) adjusted to pH 10.0, the pH at which the rate of enzymatically catalyzed oleamide hydrolysis is maximal. In all cases which involved Dixon analysis, the substrate concentration was 100 μM. The oleic acid Ki was determined over a range of substrate concentrations from 10 to 100 μM. Substrate and inhibitors were dissolved in DMSO prior to addition to the 50 mM CAPS buffer, generating a final DMSO assay concentration of 1.67%. […] The enzyme concentration was adjusted to produce a rate of roughly 0.2 μM/min in the absence of inhibitor and the rate of ammonia production observed over a period of 7 to 10 minutes.
The enzyme was used as a crude, heterogenous, membrane-containing preparation from rat liver. […]

animals = conditions: cited from earlier work; for somnolescent activity: in vivo
[6] = Extent of hydration / hemiacetal formation of inhibitor carbonyl by 1H and 13C NMR; format: physicochemical; conditions: for conversion to hemiacetal: CD3OD, NMR
Source text: FIG. 2 illustrates ^1 H NMR and ^13 C NMR data to establish and quantitate the addition of CD3 OD or D2 O to the electrophilic carbonyl in CD3 OD or acetone-d6. […] Expected trends follow 11>12>8>6≥4.

rat = test: Sleep monitoring in rat after intra-abdominal injection, electrophysiological methods; format: in vivo; conditions: intraperitoneal, mineral oil, four hours
Method: Another aspect of the invention is directed to a method for inducing sleep within an oleamide sensitive animal by administrating an effective dose of an […] of oleamide hydrolase. A preferred […] is compound 6. Compound 6 was dissolved in mineral oil and an effective dose was injected into the peritoneum of a rat by intra-abdominal injection. Sleep was monitored for the following four hours. Total sleep time was determined by standard electrophysiological methods. An increase of deep slow-wave sleep (SWS) with a reduction of the waking period was observed.

[7] = pH 10.0, 100 μM oleamide, Dixon method, read-out: Ki
[8] = pH 10.0, 100 μM oleamide, Dixon method, read-out: inhibition constant (Ki,app)

With c1cc(SSc2ccncc2)ccn1 [4,4'-dithiodipyridine disulfide, reference compound] the “inhibition of oleamide hydrolase (in words)” value (“inhibition … (in words)” for short) (oleamide hydrolase [1]) was “can be inhibited”.

With CCCCCCCC/C=C\CCCCCCCC(N)=O [Compound 1, cis-9-octadecenamide] the “pH of rate maximum” value (oleamide hydrolase [2]) was 10.0, the “dependence of reaction rate on substrate concentration” value (oleamide hydrolase [3]; 30-100 μM) was “essentially a zero order dependence on substrate concentration” and the Km (oleamide hydrolase [3]; average of four independent assays) was 5 ± 2 µM. For the same compound, the solubility [4] was about 200 µM (≈ 56.3 µg/mL), the “rate of ammonia production in the absence of enzyme” value [5] was “only a very minimal rate of ammonia production” and the “quantity inducing physiological sleep” value (animals; injected intravascularly) was “nanomolar quantities”.

In the case of CCCCCCCC/C=C\CCCCCCCC(=O)CCl [Compound 3, 1-Chloro-10Z-nonadecen-2-one], the “time dependence of inhibitory activity” value (oleamide hydrolase [1]; first fifteen minutes of incubation, up to solubility limits) is reported as “time independent but moderate inhibition” and the Ki (oleamide hydrolase [1]; [7]) is reported as 700 nM.

In the case of CCCCCCCC/C=C\CCCCCCCC=O [Compound 4], the conversion to hemiacetal [6] is reported as 47%.

For CCCCCCCC/C=C\CCCCCCC=O [Compound 5, 8Z-Heptadecenal], the “relative binding, C-2 versus C-1 position of electrophilic carbonyl (aldehydes)” value (oleamide hydrolase [1]; 5 versus 4) was “five times more tightly than 4”.

In the case of CCCCCCCC/C=C\CCCCCCC(=O)C(N)=O [Compound 6, 2-Oxo-9Z-octadecenamide], the conversion to hemiacetal [6] is reported as 48%, the “increase of deep slow-wave sleep (SWS)” value (rat) is reported as “approximately 30%” and the reduction of waking (rat) is reported as “a similar percent of reduction of waking”.

With CCCCCCCC/C=C\CCCCCCCC(=O)C(N)=O [Compound 7, 2-Oxo-10Z-nonadecenamide] the “relative binding (in words)” value (oleamide hydrolase [1]; comparison between inhibitors) was “binds more tightly”.

For CCCCCCCC/C=C\CCCCCCC(=O)C(=O)OCC [Compound 8, Ethyl 2-Oxo-9Z-octadecenoate], the conversion to hemiacetal [6] was 75%, the “increase in binding affinity, C-2 versus C-1 position of electrophilic carbonyl (α-keto esters)” value (oleamide hydrolase [1]; 8 versus 9) was 6 fold and the “relative binding (in words)” value (oleamide hydrolase [1]; comparison between inhibitors) was “bind equally tightly”. For the same compound, the Ki (oleamide hydrolase [1]; [8]) was 1.4 nM.

In the case of CCCCCCCCCCCCCCCC(=O)C(O)(O)C(=O)OC(C)(C)C [Compound 11, tert-Butyl 3-Oxo-2,2-dihydroxyoctadecanoate], the “hydration of carbonyl (in words)” value [6] is reported as “fully hydrated”, the conversion to hemiacetal [6] is reported as 100% and the Ki (oleamide hydrolase [1]; [8]) is reported as 150 nM.

In the case of CCCCCCCC/C=C\CCCCCCCC(=O)C(F)(F)F [Compound 12, 1,1,1-Trifluoro-10Z-nonadecen-2-one], the “hydration of carbonyl (in words)” value [6] is reported as “almost entirely as hydrates”, the conversion to hemiacetal [6] is reported as 100% and the Ki (oleamide hydrolase [1]) is reported as 1.2 nM. The “preference for cis double bond at 9 position” value (oleamide hydrolase [1]) was “approximately an order of magnitude more tightly than the trans double bond containing 14 or the saturated derivative 15”, the “relative binding (in words)” value (oleamide hydrolase [1]) was “bind equally tightly” and the “type of inhibition (Lineweaver-Burke plot)” value (oleamide hydrolase [1]) was “competitive”.

For CCCCCCCC/C=C\CCCCCCC(=O)C(F)(F)F [Compound 13, 1,1,1-Trifluoro-9Z-octadecen-2-one], the “hydration of carbonyl (in words)” value [6] was “almost entirely as hydrates”.

For CCCCCCCC/C=C/CCCCCCCC(=O)C(F)(F)F [Compound 14, 1,1,1-Trifluoro-10E-nonadecen-2-one], the “hydration of carbonyl (in words)” value [6] was “almost entirely as hydrates”.

In the case of CCCCCCCCCCCCCCCCCC(=O)C(F)(F)F [Compound 15], the “hydration of carbonyl (in words)” value [6] is reported as “almost entirely as hydrates”.

With CCCCCCCC/C=C\CCCCCCCC(OC)OC [Compound 16] the “inhibition … (in words)” value (oleamide hydrolase [1]) was “poor inhibition”.

In the case of CCCCCCCC/C=C\CCCCCCC(O)C(N)=O (stereo not drawn) [Compound 17, 2-Hydroxy-9Z-octadecenamide], the “inhibition … (in words)” value (oleamide hydrolase [1]) is reported as “poor inhibition”.

In the case of CCCCCCCC/C=C\CCCCCCC(O)C(=O)O (stereo not drawn) [Compound 18], the “inhibition … (in words)” value (oleamide hydrolase [1]) is reported as “poor inhibition”.

With CCCCCCCC/C=C\CCCCCCC(Cl)C(=O)O (stereo not drawn) [Compound 20, 2-Chlorcoleic acid] the “mode of binding (in words)” value (oleamide hydrolase [1]) was “appeared to bind reversibly” and the Ki (oleamide hydrolase [1]; [7]) was 300 nM.

Work on CCCCCCCC/C=C\CCCCCCCC(=O)C=[N+]=[N-] [Compound 21, 1-Diazo-10Z-nonadecen-2-one] yielded a Ki (oleamide hydrolase [1]; [7]) of 18000 nM.

In the case of O=C(O)CN(CCN(CC(=O)O)CC(=O)O)CC(=O)O [EDTA, reference compound], the “inhibition … (in words)” value (oleamide hydrolase [1]) is reported as “not by 1 mM EDTA”.

With [Cl][Hg][Cl] [HgCl2, reference compound] the “inhibition … (in words)” value (oleamide hydrolase [1]) was “can be inhibited”, the IC50 (oleamide hydrolase [1]; HgCl2) was 700 nM and the Ki (oleamide hydrolase [1]; HgCl2, read-out: Ki, app) was 37 nM.

For N [ammonia], the somnolescent activity (animals) is listed as “neither of which demonstrate somnolescent activity”.

For CCCCCCCC/C=C\CCCCCCCC(=O)O [oleic acid, cis-9-octadecenoic acid, reference compound], the Ki (oleamide hydrolase [1]; pH 10.0, non-linear weighted least-squares fit, 10 to 100 μM oleamide, read-out: Ki) is listed as 6000 nM and the somnolescent activity (animals) is listed as “neither of which demonstrate somnolescent activity”.

For O=S(=O)(F)Cc1ccccc1 [phenylmethylsulfonyl fluoride, reference compound], the “inhibition … (in words)” value (oleamide hydrolase [1]) was “can be inhibited”.
